Reference: the NIST ThermoML archive (doi:10.1021/acs.jced.5b00675)

Settings: Liquid, Closed cell (Static) method

FCC(F)(F)F [1,1,1,2-tetrafluoroethane]
Settings | vapor or sublimation pressure [kPa]
258.2 K | 162
262.2 K | 193
272.2 K | 286
282.6 K | 411
292.9 K | 569
302.7 K | 763
